The kinase profiling compilation of Christmann-Franck et al. (2016)

Columns and labels:
Assay in all cases: KINOMEscan competition binding
Details in all cases: compound 10.0 µM
AKT3 (human) = AKT3 (human) (UniProt Q9Y243)
ANKK1 (human) = ANKK1 (human) (UniProt Q8NFD2)
CAMK2A (human) = CAMK2A (human) (UniProt Q9UQM7)
CDK13 (human) = CDK13 (human) (UniProt Q14004)
CDK14 (human) = CDK14 (human) (UniProt O94921)
CDK2 (human) = CDK2 (human) (UniProt P24941)
CDK7 (human) = CDK7 (human) (UniProt P50613)
CDKL1 (human) = CDKL1 (human) (UniProt Q00532)
CLK3 (human) = CLK3 (human) (UniProt P49761)
DAPK1 (human) = DAPK1 (human) (UniProt P53355)
DAPK2 (human) = DAPK2 (human) (UniProt Q9UIK4)
EIF2AK1 (human) = EIF2AK1 (human) (UniProt Q9BQI3)
EPHA6 (human) = EPHA6 (human) (UniProt Q9UF33)
HIPK2 (human) = HIPK2 (human) (UniProt Q9H2X6)
ICK (human) = ICK (human) (UniProt Q9UPZ9)
IGF1R (human) = IGF1R (human) (UniProt P08069)
IRAK1 (human) = IRAK1 (human) (UniProt P51617)
LATS2 (human) = LATS2 (human) (UniProt Q9NRM7)
LRRK2 (human) = LRRK2 (human) (UniProt Q5S007)
MAP2K6 (human) = MAP2K6 (human) (UniProt P52564)
MAP3K5 (human) = MAP3K5 (human) (UniProt Q99683)
MAP4K1 (human) = MAP4K1 (human) (UniProt Q92918)
MAPK12 (human) = MAPK12 (human) (UniProt P53778)
MAPK15 (human) = MAPK15 (human) (UniProt Q8TD08)
NTRK2 (human) = NTRK2 (human) (UniProt Q16620)
NUAK2 (human) = NUAK2 (human) (UniProt Q9H093)
PDPK1 (human) = PDPK1 (human) (UniProt O15530)
PIK3C2G (human) = PIK3C2G (human) (UniProt O75747)
PRKD2 (human) = PRKD2 (human) (UniProt Q9BZL6)
PRKG1 (human) = PRKG1 (human) (UniProt Q13976)
RIPK4 (human) = RIPK4 (human) (UniProt P57078)
RPS6KA1 KD2 (human) = RPS6KA1 KD2 (human) (UniProt Q15418)
RPS6KA4 KD1 (human) = RPS6KA4 KD1 (human) (UniProt O75676)
RPS6KB1 (human) = RPS6KB1 (human) (UniProt P23443)
STK17B (human) = STK17B (human) (UniProt O94768)
STK35 (human) = STK35 (human) (UniProt Q8TDR2)
TGFBR1 (human) = TGFBR1 (human) (UniProt P36897)
TGFBR2 (human) = TGFBR2 (human) (UniProt P37173)
TNK2 (human) = TNK2 (human) (UniProt Q07912)
[1] = target: TYK2 JH2 pseudokinase (human) (UniProt P29597)

Sequence of CAMK2A (human) (Q9UQM7 whole entry, looked up): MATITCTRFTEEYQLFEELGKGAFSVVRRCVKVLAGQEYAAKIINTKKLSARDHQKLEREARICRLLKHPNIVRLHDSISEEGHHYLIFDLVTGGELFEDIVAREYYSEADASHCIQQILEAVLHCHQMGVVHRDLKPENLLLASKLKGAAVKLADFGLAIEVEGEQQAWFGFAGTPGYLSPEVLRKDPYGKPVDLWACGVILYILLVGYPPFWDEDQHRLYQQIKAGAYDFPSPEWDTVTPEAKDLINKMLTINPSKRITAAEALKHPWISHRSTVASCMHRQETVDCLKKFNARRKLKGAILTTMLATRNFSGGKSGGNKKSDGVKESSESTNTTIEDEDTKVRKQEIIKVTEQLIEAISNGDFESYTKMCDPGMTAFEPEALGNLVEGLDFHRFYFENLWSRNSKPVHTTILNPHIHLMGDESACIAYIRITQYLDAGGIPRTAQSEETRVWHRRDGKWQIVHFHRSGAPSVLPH
Sequence of LRRK2 (human) (Q5S007 whole entry, looked up): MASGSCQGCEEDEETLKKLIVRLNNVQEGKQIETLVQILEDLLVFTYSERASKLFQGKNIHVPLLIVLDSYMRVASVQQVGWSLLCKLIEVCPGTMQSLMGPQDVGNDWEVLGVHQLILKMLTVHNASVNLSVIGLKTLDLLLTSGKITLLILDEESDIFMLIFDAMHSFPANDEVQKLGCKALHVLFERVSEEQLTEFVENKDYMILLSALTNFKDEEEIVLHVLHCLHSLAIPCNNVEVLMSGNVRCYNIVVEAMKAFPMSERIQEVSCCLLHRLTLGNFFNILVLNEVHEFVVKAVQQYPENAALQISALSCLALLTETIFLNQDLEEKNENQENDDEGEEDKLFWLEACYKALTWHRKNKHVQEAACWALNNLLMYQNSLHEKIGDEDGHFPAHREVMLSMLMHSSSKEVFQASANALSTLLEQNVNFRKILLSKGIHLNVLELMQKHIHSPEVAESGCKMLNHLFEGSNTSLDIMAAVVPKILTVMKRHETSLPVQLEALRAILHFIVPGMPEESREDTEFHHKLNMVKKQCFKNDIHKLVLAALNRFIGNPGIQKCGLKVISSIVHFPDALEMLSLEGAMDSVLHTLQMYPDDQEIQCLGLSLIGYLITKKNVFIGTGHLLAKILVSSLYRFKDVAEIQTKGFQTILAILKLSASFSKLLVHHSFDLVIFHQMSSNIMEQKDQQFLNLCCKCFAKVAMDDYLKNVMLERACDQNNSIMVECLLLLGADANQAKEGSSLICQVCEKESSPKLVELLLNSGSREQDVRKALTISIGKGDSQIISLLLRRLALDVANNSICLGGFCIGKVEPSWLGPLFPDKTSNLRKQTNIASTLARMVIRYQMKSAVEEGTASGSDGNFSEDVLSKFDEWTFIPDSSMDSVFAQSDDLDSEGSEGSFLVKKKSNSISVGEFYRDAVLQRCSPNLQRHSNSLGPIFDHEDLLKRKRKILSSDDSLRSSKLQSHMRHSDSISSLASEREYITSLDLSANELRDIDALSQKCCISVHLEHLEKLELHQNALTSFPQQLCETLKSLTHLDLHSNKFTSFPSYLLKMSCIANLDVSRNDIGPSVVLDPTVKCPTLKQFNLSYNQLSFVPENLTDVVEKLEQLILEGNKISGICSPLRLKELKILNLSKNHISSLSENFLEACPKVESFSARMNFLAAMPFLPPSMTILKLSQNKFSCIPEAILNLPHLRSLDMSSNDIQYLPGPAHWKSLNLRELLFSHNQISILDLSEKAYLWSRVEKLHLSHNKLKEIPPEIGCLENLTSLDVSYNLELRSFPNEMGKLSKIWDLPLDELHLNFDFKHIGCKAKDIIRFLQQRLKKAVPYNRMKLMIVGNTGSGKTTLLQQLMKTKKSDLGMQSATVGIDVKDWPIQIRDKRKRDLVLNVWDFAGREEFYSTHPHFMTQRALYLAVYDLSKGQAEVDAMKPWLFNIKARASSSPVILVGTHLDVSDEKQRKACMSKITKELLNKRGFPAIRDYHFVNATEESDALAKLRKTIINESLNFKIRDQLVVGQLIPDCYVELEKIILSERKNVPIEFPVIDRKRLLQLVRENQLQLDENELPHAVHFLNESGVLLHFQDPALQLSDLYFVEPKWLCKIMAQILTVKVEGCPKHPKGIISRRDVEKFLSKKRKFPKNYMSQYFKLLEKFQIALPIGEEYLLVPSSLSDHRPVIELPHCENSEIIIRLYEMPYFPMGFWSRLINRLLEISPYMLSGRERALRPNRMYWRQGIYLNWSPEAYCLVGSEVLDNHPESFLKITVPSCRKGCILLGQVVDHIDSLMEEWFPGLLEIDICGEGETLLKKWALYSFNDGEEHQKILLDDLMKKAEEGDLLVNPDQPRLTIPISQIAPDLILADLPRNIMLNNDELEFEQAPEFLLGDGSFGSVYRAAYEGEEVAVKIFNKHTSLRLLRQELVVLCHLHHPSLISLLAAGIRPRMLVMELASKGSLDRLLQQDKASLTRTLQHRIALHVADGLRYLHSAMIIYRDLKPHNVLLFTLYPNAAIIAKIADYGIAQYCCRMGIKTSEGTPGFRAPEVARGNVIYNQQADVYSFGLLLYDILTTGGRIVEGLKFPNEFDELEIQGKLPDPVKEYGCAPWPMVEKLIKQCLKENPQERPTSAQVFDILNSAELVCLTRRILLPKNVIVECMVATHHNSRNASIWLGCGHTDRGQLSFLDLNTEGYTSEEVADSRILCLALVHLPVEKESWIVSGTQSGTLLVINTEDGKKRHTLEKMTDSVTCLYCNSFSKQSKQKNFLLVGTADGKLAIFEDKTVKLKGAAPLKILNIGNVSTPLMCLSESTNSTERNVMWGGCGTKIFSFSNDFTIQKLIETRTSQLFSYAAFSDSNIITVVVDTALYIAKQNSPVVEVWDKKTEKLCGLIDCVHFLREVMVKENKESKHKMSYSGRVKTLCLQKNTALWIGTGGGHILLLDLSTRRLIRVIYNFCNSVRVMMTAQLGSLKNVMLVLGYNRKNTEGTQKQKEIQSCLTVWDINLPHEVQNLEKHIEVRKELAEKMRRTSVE
Sequence of CDKL1 (human) (Q00532 whole entry, looked up): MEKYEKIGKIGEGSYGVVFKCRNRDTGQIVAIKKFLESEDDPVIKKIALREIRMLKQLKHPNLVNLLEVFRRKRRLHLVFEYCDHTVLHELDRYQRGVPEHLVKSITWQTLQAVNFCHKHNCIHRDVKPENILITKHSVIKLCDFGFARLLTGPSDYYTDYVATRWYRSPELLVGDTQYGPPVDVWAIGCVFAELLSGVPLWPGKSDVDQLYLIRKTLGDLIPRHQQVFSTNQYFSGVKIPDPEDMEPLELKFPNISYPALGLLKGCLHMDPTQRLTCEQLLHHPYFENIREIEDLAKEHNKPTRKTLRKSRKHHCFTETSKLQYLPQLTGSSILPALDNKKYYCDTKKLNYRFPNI
Sequence of RPS6KA4 KD1 (human) (O75676 whole entry, looked up): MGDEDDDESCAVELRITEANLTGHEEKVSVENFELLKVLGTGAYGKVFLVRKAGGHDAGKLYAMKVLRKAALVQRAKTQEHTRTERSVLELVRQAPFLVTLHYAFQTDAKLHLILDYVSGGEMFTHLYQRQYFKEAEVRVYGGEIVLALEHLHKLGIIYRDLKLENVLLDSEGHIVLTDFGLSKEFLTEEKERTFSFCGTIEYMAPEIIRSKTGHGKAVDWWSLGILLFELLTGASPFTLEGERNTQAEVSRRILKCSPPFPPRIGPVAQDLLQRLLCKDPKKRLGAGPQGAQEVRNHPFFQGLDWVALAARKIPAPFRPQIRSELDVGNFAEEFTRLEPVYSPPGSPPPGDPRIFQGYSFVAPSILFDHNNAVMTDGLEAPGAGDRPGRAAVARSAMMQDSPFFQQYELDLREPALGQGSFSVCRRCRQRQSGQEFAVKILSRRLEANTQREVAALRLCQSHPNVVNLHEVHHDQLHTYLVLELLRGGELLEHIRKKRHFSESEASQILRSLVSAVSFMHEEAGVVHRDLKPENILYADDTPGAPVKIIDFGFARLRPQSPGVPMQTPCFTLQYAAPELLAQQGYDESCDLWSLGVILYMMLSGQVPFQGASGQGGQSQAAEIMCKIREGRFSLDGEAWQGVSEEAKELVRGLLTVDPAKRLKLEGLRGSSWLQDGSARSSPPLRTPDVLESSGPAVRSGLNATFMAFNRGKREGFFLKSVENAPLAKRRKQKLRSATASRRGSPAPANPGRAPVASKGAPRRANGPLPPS
Sequence of STK35 (human) (Q8TDR2 whole entry, looked up): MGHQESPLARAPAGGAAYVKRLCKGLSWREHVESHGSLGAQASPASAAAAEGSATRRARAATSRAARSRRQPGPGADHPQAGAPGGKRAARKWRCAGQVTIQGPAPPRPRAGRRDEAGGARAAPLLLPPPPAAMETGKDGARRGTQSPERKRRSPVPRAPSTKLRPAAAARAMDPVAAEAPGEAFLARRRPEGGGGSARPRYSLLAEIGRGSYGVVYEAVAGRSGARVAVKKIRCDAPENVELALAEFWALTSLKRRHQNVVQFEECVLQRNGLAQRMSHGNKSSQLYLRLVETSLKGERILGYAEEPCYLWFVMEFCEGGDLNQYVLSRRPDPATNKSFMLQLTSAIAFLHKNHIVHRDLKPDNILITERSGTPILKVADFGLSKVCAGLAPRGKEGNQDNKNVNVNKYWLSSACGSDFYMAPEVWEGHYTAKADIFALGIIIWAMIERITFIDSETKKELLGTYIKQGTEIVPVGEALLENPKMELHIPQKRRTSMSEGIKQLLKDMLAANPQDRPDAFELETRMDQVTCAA
Sequence of STK17B (human) (O94768 whole entry, looked up): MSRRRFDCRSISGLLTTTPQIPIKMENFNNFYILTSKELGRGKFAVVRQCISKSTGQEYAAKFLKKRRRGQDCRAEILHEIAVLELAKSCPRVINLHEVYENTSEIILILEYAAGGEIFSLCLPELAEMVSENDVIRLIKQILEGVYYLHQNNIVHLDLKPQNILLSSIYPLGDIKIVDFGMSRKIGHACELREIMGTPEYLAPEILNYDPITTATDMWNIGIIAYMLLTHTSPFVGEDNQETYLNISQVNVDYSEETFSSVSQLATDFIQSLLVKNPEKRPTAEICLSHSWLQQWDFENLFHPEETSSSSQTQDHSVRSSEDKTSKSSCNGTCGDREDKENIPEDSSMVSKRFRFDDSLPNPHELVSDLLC

SMILES | kinase still bound, per cent of control (AKT3 (human)) [%] | kinase still bound, per cent of control (ANKK1 (human)) [%] | kinase still bound, per cent of control (CAMK2A (human)) [%] | kinase still bound, per cent of control (CDK13 (human)) [%] | kinase still bound, per cent of control (CDK14 (human)) [%] | kinase still bound, per cent of control (CDK2 (human)) [%] | kinase still bound, per cent of control (CDK7 (human)) [%] | kinase still bound, per cent of control (CDKL1 (human)) [%] | kinase still bound, per cent of control (CLK3 (human)) [%] | kinase still bound, per cent of control (DAPK1 (human)) [%] | kinase still bound, per cent of control (DAPK2 (human)) [%] | kinase still bound, per cent of control (EIF2AK1 (human)) [%] | kinase still bound, per cent of control (EPHA6 (human)) [%] | kinase still bound, per cent of control (HIPK2 (human)) [%] | kinase still bound, per cent of control (ICK (human)) [%] | kinase still bound, per cent of control (IGF1R (human)) [%] | kinase still bound, per cent of control (IRAK1 (human)) [%] | kinase still bound, per cent of control (LATS2 (human)) [%] | kinase still bound, per cent of control (LRRK2 (human)) [%] | kinase still bound, per cent of control (MAP2K6 (human)) [%] | other results
C=CC(=O)Nc1cc(NC(=O)c2ccc(C)c(NC(=O)c3ccno3)c2)cc(C(F)(F)F)c1 | 100 | 99 | 91 | 100 | 93 | 100 | 91 | 100 | 100 | 80 | 97 | 100 | 93 | 86 | 75 | 63 | 100 | 88 | 89 | 100 | kinase still bound, per cent of control (MAP3K5 (human)): 100%; kinase still bound, per cent of control (MAP4K1 (human)): 75%; kinase still bound, per cent of control (MAPK12 (human)): 96%; kinase still bound, per cent of control (MAPK15 (human)): 100%; kinase still bound, per cent of control (NTRK2 (human)): 84%; kinase still bound, per cent of control (NUAK2 (human)): 97%; kinase still bound, per cent of control (PDPK1 (human)): 94%; kinase still bound, per cent of control (PIK3C2G (human)): 100%; kinase still bound, per cent of control (PRKD2 (human)): 100%; kinase still bound, per cent of control (PRKG1 (human)): 100%; kinase still bound, per cent of control (RIPK4 (human)): 86%; kinase still bound, per cent of control (RPS6KA1 KD2 (human)): 100%; kinase still bound, per cent of control (RPS6KA4 KD1 (human)): 100%; kinase still bound, per cent of control (RPS6KB1 (human)): 87%; kinase still bound, per cent of control (STK17B (human)): 89%; kinase still bound, per cent of control (STK35 (human)): 100%; kinase still bound, per cent of control (TGFBR1 (human)): 96%; kinase still bound, per cent of control (TGFBR2 (human)): 93%; kinase still bound, per cent of control (TNK2 (human)): 84%; kinase still bound, per cent of control [1]: 100%
C=CC(=O)Nc1cccc(Nc2nc(N[C@H]3CC[C@H](N(C)C)CC3)nc3c2ncn3C(C)C)c1 | 91 | 62 | 34 | 40 | 98 | 100 | 15 | 100 | 9 | 29 | 37 | 100 | 73 | 17 | 100 | 87 | 1.8 | 70 | 61 | 100 | kinase still bound, per cent of control (MAP3K5 (human)): 100%; kinase still bound, per cent of control (MAP4K1 (human)): 74%; kinase still bound, per cent of control (MAPK12 (human)): 96%; kinase still bound, per cent of control (MAPK15 (human)): 75%; kinase still bound, per cent of control (NTRK2 (human)): 5.3%; kinase still bound, per cent of control (NUAK2 (human)): 45%; kinase still bound, per cent of control (PDPK1 (human)): 100%; kinase still bound, per cent of control (PIK3C2G (human)): 100%; kinase still bound, per cent of control (PRKD2 (human)): 100%; kinase still bound, per cent of control (PRKG1 (human)): 100%; kinase still bound, per cent of control (RIPK4 (human)): 72%; kinase still bound, per cent of control (RPS6KA1 KD2 (human)): 67%; kinase still bound, per cent of control (RPS6KA4 KD1 (human)): 59%; kinase still bound, per cent of control (RPS6KB1 (human)): 87%; kinase still bound, per cent of control (STK17B (human)): 22%; kinase still bound, per cent of control (STK35 (human)): 80%; kinase still bound, per cent of control (TGFBR1 (human)): 100%; kinase still bound, per cent of control (TGFBR2 (human)): 100%; kinase still bound, per cent of control (TNK2 (human)): 46%; kinase still bound, per cent of control [1]: 100%
